Reference: US20260250318A1, “COMPOSITIONS AND METHODS FOR CROSSING THE BLOOD BRAIN BARRIER” (VOYAGER THERAPEUTICS, INC., priority 2022, published 2026)

Legend:
Settings in all cases: synthetic library passage 3, intravenous, relative to wild-type AAV9
[1] = test system: brain, spinal cord, and DRG of the NHPs; experiment: NGS fold enrichment of synthetic library (passage 3) in NHPs, first cross-species screen; format: in vivo, cynomolgus macaques (Macaca fascicularis)
Procedure, shortened: (§1)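 Fold enrichment versus wild-type AAV9 was derived by NGS of RT-PCR-amplified RNA from nervous tissue, collected e.g. 28 days after IV dosing […]. The library (passage 3) was given to two NHPs aged 2-4 years and to 6-8-week BALB/c and C57Bl/6 mice (n=3 each).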

brain [2] = experiment: NGS fold enrichment of synthetic library (passage 3) in BALB/c mice, first cross-species screen; format: in vivo
Procedure, shortened: as §1

brain [3] = experiment: NGS fold enrichment of synthetic library (passage 3) in C57Bl/6 mice, first cross-species screen; format: in vivo
Procedure, shortened: as §1

[4] = RNA from spinal cord of NHPs, NGS
[5] = RNA from brain of BALB/c mice, NGS
[6] = RNA from brain of C57Bl/6 mice, NGS

| Sequence | Fold enrichment over AAV9 in the brain of NHPs ([1]; RNA NGS, brain of NHPs) [fold] | Fold enrichment over AAV9 in the spinal cord of NHPs ([1]; RNA NGS, spinal cord of NHPs) [fold] | Fold enrichment over AAV9 in the brain of Mice (BALB/c) (brain [2]; RNA NGS, brain of BALB/c mice) [fold] | Fold enrichment over AAV9 in the brain of Mice (C57Bl/6) (brain [3]; RNA NGS, brain of C57Bl/6 mice) [fold] | Fold enrichment over AAV9 in the brain of NHPs ([1]; RNA from brain of NHPs, NGS) [fold] | Fold enrichment over AAV9 in the spinal cord of NHPs [1, 4] [fold] | Fold enrichment over AAV9 in the brain of Mice (BALB/c) (brain [2]; [5]) [fold] | Fold enrichment over AAV9 in the brain of Mice (C57Bl/6) (brain [3]; [6]) [fold] |
| --- | --- | --- | --- | --- | --- | --- | --- | --- |
| GSGQTVVRIANQQT | 1.046 | 4.156 | 0.390 | 0.661 | – | – | – | – |
| GSGQVAYAQGNQQT | – | – | – | – | 1.259 | 1.309 | 0.313 | 0.734 |
| GSGQVGRLLQNQQT | 1.899 | 1.762 | 0.748 | 0.773 | – | – | – | – |
| GSGQVHASQVNQKT | 1.049 | 0.503 | 0.767 | 0.855 | – | – | – | – |
| GSGQVHNPTQNQQT | – | – | – | – | 1.410 | 2.488 | 0.542 | 1.021 |
| GSGQVHQAEVNQQT | 1.825 | 0.152 | 0.287 | 0.436 | – | – | – | – |
| GSGQVVAHVGNQQT | 1.901 | 0.833 | 0.321 | 0.800 | – | – | – | – |
| GSGQVVGLSGNQQT | 2.052 | 7.212 | 0.881 | 0.785 | – | – | – | – |
| GSGQVYISTPNQQT | – | – | – | – | 1.367 | 0.000 | 0.282 | 0.859 |
| GSGQYANHGINQQT | 1.820 | 5.717 | 0.701 | 0.906 | – | – | – | – |
| GSGQYASSIPNQQT | 2.346 | 3.321 | 0.489 | 1.022 | – | – | – | – |
| GSGQYRSSSDNQQT | – | – | – | – | 1.369 | 6.209 | 0.409 | 0.681 |
| GSGQYVHVSSNQQT | – | – | – | – | 1.137 | 1.803 | 0.366 | 0.739 |
| GSGRHLASVQNQQT | – | – | – | – | 1.187 | 1.024 | 0.606 | 0.654 |
| GSGRLVPNGPNQQT | 2.314 | 3.925 | 0.411 | 0.639 | – | – | – | – |
| GSGRNPQTQPLQQT | 1.519 | 0.040 | 0.573 | 0.733 | – | – | – | – |
| GSGSDMSSWQNQQT | 1.651 | 0.175 | 0.303 | 0.281 | – | – | – | – |
| GSGSHHASRQNQQT | 1.712 | 0.451 | 0.584 | 3.073 | – | – | – | – |
| GSGSHRDVSQNQQT | 2.843 | 4.022 | 0.550 | 0.626 | – | – | – | – |
| GSGSKQNALQNQQT | – | – | – | – | 1.216 | 2.010 | 0.594 | 0.941 |

| Sequence | Fold enrichment over AAV9 in the brain of NHPs ([1]; RNA NGS, brain of NHPs) [fold] | Fold enrichment over AAV9 in the spinal cord of NHPs ([1]; RNA NGS, spinal cord of NHPs) [fold] | Fold enrichment over AAV9 in the brain of Mice (BALB/c) (brain [2]; RNA NGS, brain of BALB/c mice) [fold] | Fold enrichment over AAV9 in the brain of Mice (C57Bl/6) (brain [3]; RNA NGS, brain of C57Bl/6 mice) [fold] | Fold enrichment over AAV9 in the brain of NHPs ([1]; RNA from brain of NHPs, NGS) [fold] | Fold enrichment over AAV9 in the spinal cord of NHPs [1, 4] [fold] | Fold enrichment over AAV9 in the brain of Mice (BALB/c) (brain [2]; [5]) [fold] | Fold enrichment over AAV9 in the brain of Mice (C57Bl/6) (brain [3]; [6]) [fold] |
| --- | --- | --- | --- | --- | --- | --- | --- | --- |
| GSGSLRDFDQNQQT | 2.120 | 6.846 | 0.272 | 0.586 | – | – | – | – |
| GSGSNMRLSQNQQT | – | – | – | – | 1.363 | 0.588 | 0.730 | 0.962 |
| GSGSPHARMQNQQT | 56.138 | 22.690 | 4.164 | 7.795 | – | – | – | – |
| GSGSPHPSRQNQQT | 3.017 | 1.993 | 0.975 | 1.869 | – | – | – | – |
| GSGSPHVKIQNQQT | 16.854 | 9.068 | 2.227 | 2.173 | – | – | – | – |
| GSGSPHVKSQNQQT | 37.551 | 13.649 | 15.861 | 8.069 | – | – | – | – |
| GSGSPHVRMQNQQT | 11.574 | 6.764 | 10.076 | 9.121 | – | – | – | – |
| GSGSPQASRQNQQT | – | – | – | – | 1.189 | 6.782 | 0.542 | 0.923 |
| GSGSPRDSIQNQQT | 1.981 | 4.914 | 0.446 | 0.171 | – | – | – | – |
| GSGSPRQLSQNQQT | 1.621 | 0.873 | 0.273 | 0.520 | – | – | – | – |
| GSGSQHSKAQNQQT | – | – | – | – | 1.168 | 0.312 | 0.916 | 0.638 |
| GSGSQLMSLQNQQT | 2.065 | 3.559 | 0.172 | 0.563 | – | – | – | – |
| GSGSSSMSFQNQQT | – | – | – | – | 1.279 | 0.540 | 0.095 | 0.466 |
| GSGSSSRPYQNQQT | 1.934 | 3.823 | 0.496 | 0.962 | – | – | – | – |
| GSGSTHSKAQNQQT | – | – | – | – | 1.410 | 0.515 | 0.801 | 0.921 |
| GSGSVGFIGQNQQT | – | – | – | – | 1.227 | 8.261 | 0.445 | 0.689 |
| GSGSVSQLGQNQQT | 3.184 | 2.307 | 0.375 | 0.596 | – | – | – | – |
| GSGTHLVSLQNQQT | – | – | – | – | 1.392 | 0.000 | 1.167 | 0.715 |
| GSGTHNSAIQNQQT | 1.469 | 0.570 | 0.574 | 0.762 | – | – | – | – |
| GSGTHYDNRQNQQT | 1.054 | 0.072 | 0.486 | 0.612 | – | – | – | – |
